Data published in PMC3530924 (Bioorganic & medicinal chemistry, 2010).
Where two headings read alike, the source gives them in different places.

Legend:
[1] = molecular target: T1, CT-L activity of purified rabbit 20S proteasome (Oryctolagus cuniculus, UniProt G1SU71+G1T4Q9); assay: Fluorometric assay of CT-L proteolytic activity of purified 20S proteasome; assay type: biochemical
T1 sequence (G1T4Q9 60-263): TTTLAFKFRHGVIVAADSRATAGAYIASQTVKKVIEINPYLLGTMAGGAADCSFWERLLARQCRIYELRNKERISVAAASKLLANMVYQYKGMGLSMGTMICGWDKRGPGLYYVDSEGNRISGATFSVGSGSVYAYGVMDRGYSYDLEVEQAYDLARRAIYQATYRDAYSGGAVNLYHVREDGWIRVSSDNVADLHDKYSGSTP
T1 sequence (G1SU71 29-241): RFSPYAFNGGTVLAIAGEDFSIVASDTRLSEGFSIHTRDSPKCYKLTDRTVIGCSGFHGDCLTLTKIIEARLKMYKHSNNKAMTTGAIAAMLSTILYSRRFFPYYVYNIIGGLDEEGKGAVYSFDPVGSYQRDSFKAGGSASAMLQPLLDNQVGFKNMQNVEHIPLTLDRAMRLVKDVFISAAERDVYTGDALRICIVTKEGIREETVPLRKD

[2] = tested on: CT-L activity of rabbit 20S proteasome; assay: Dialysis; assay type: biochemical; conditions: compounds 10 µM; for inhibition of CT-L activity of the 20S proteasome in the absence of dialysis: 3 nM rabbit 20S proteasome, 30 min pre-incubation, no dialysis; for time of dialysis at which CT-L activity started to recover: dialysis at 4 °C against assay buffer
[3] = tested on: human breast and lung tumors implanted as xenografts; conditions: nude mice; cited from earlier work
[4] = tested on: primary cells derived from patients with multiple myeloma; conditions: cited from earlier work
[5] = tested on: purified Calpain; assay: Inhibition of purified Calpain; assay type: biochemical; conditions: read-out: IC50 purified Calpain; data not reported in the paper
[6] = tested on: MCF-7 cells; conditions: read-out: IC50 cell viability; cited from earlier work
[7] = tested on: cancer cell lines derived from prostate, lung and multiple myeloma; conditions: cited from earlier work
[8] = read-out: In vitro IC50 CT-L activity, purified rabbit 20S proteasome, Suc-Leu-Leu-Val-Tyr-AMC, 1 hour at 37 °C, pH 7.6, tested in triplicate at least twice

Compound	IC50 [1] [µM]	further results
4-(6-amino-3-chloro-1,4-dioxo-1,4-dihydronaphthalen-2-ylamino)-N- (pyridin-2-yl)benzenesulfonamide and 4-(7-amino-3-chloro-1,4-dioxo-1,4-dihydronaphthalen-2-ylamino)- N-(pyridin-2-yl)benzenesulfonamide [Compound 8]		inhibitory activity in the in vitro enzymatic assay ([1]; CT-L, mixtures of isomers): did not lead to any appreciable inhibitory activities
O=C1C=CC(=O)c2ccccc21 [1,4-naphthoquinone]	> 100	
O=C1C(Cl)=C(Cl)C(=O)c2ccccc21 [2,3-dichloronaphthoquinone]		IC50 [1, 8]: > 100 µM
CC1=CC(=O)c2ccccc2C1=O [2-methyl-1,4-naphthoquinone]	> 100	
CC(C)C[C@H](NC(=O)[C@H](Cc1ccccc1)NC(=O)c1cnccn1)B(O)O [Bortezomib, reference compound]		inhibition of CT-L activity of the 20S proteasome in the absence of dialysis [2]: 99%; time of dialysis at which CT-L activity started to recover [2]: 4 h
COc1cnc(NS(=O)(=O)c2ccc(NC3=C(Cl)C(=O)c4ccccc4C3=O)cc2)nc1 [Compound 2e, 4-(3-Chloro-1,4-dioxo-1,4-dihydronaphthalen-2-ylamino)-N-(5-methoxypyrimidin-2-yl)benzenesulfonamide]	100	
COc1cc(NS(=O)(=O)c2ccc(NC3=C(Cl)C(=O)c4ccccc4C3=O)cc2)nc(OC)n1 [Compound 2i, 4-(3-Chloro-1,4-dioxo-1,4-dihydronaphthalen-2-ylamino)-N-(2,6-dimethoxypyrimidin-4-yl)-benzenesulfonamide]	100	
CC1=C(Nc2ccc(S(=O)(=O)Nc3ccccn3)cc2)C(=O)c2ccccc2C1=O [Compound 2k, 4-(3-Methyl-1,4-dioxo-1,4-dihydronaphthalen-2-ylamino)-N-(pyridin-2-yl)benzenesulfonamide]	> 100	
CC1=C(Nc2ccc(S(=O)(=O)NC(=O)c3ccccc3)cc2)C(=O)c2ccccc2C1=O [Compound 2l, N-(4-(3-methyl-1,4-dioxo-1,4-dihydronaphthalen-2-ylamino)phenylsulfonyl) benzamide]	> 100	
COc1cnc(NS(=O)(=O)c2ccc(NC3=C(C)C(=O)c4ccccc4C3=O)cc2)nc1 [Compound 2m, N-(5-methoxypyrimidin-2-yl)-4-(3-methyl-1,4-dioxo-1,4-dihydronaphthalen-2-ylamino)-benzenesulfonamide]	> 100	
O=C(NS(=O)(=O)c1ccc(NC2=CC(=O)c3ccccc3C2=O)cc1)c1ccccc1 [Compound 2p, N-(4-(1,4-dioxo-1,4-dihydronaphthalen-2-ylamino)phenylsulfonyl)benzamide]	> 100	
Cc1cc(NS(=O)(=O)c2ccc(NC3=CC(=O)c4ccccc4C3=O)cc2)no1 [Compound 2q, 4-(1,4-Dioxo-1,4-dihydronaphthalen-2-ylamino)-N-(5-methylisoxazol-3-yl)benzenesulfonamide]	> 100	
O=C1C=C(Nc2ccc(S(=O)(=O)Nc3ccccn3)cc2)C(=O)c2ccccc21 [Compound 2r, 4-(1,4-Dioxo-1,4-dihydronaphthalen-2-ylamino)-N-(pyridin-2-yl)benzenesulfonamide]	> 100	
NS(=O)(=O)c1ccc(NC2=C(Cl)C(=O)c3ccccc3C2=O)cc1 [Compound 2t, 4-(3-Chloro-1,4-dioxo-1,4-dihydronaphthalen-2-ylamino)benzenesulfonamide]	> 100	
O=C1C(Cl)=C(Nc2ccc(S(=O)(=O)Nc3ccc(Cl)cc3)cc2)C(=O)c2ccccc21 [Compound 2u, 4-(3-Chloro-1,4-dioxo-1,4-dihydronaphthalen-2-ylamino)-N-(4-chlorophenyl)benzenesulfonamide]	> 100	
O=C1C(Cl)=C(Nc2ccc(S(=O)(=O)Nc3ccc(F)cc3F)cc2)C(=O)c2ccccc21 [Compound 2v, 4-(3-Chloro-1,4-dioxo-1,4-dihydronaphthalen-2-ylamino)-N-(2,4-difluorophenyl)benzenesulfonamide]	> 100	
O=C1C(Cl)=C(Nc2ccc(S(=O)(=O)Nc3ccc(Cl)cc3Cl)cc2)C(=O)c2ccccc21 [Compound 2w, 4-(3-Chloro-1,4-dioxo-1,4-dihydronaphthalen-2-ylamino)-N-(2,4-dichlorophenyl)benzenesulfonamide]	> 100	
CN(C1=C(Cl)C(=O)c2ccccc2C1=O)c1ccc(S(=O)(=O)Nc2ccccn2)cc1 [Compound 6a, 4-((3-Chloro-1,4-dioxo-1,4-dihydronaphthalen-2-yl)(methyl)amino)-N-(pyridin-2-yl) benzenesulfonamide]		IC50 [1, 8]: > 100 µM
CCN(C1=C(Cl)C(=O)c2ccccc2C1=O)c1ccc(S(=O)(=O)Nc2ccccn2)cc1 [Compound 6b, 4-((3-Chloro-1,4-dioxo-1,4-dihydronaphthalen-2-yl)(ethyl)amino)-N-(pyridin-2-yl) benzenesulfonamide]		IC50 [1, 8]: > 100 µM
O=C1C(Cl)=C(N(Cc2ccccc2)c2ccc(S(=O)(=O)Nc3ccccn3)cc2)C(=O)c2ccccc21 [Compound 6c, 4-(Benzyl(3-chloro-1,4-dioxo-1,4-dihydronaphthalen-2-yl)amino)-N-(pyridin-2-yl) benzenesulfonamide]		IC50 [1, 8]: > 100 µM
O=C1C(Cl)=C(Nc2ccc(S(=O)(=O)Nc3ccccn3)cc2)C(=O)c2ccccc21 [PI-083, 4-(3-Chloro-1,4-dioxo-1,4-dihydronaphthalen-2-ylamino)-N-(pyridin-2-yl)benzenesulfonamide]		growth of human breast and lung tumor xenografts [3]: suppresses the growth; proliferation and survival of primary cells [4]: efficient in inhibiting proliferation and survival; IC50 [5]: > 30 µM; IC50 [6]: 2.31 ± 0.1 µM; inhibition of CT-L activity of the 20S proteasome in the absence of dialysis [2]: 88%; time of dialysis at which CT-L activity started to recover [2]: 1 h; apoptosis in cancer cell lines [7]: induces apoptosis
Nc1ccc(S(=O)(=O)Nc2ccccn2)cc1 [sulfapyridine]	> 100	

Continued, in another order:

IC50 [1] [µM]	Compound	further results
> 100	O=C1C(Cl)=C(N(Cc2ccc([N+](=O)[O-])cc2)c2ccc(S(=O)(=O)Nc3ccccn3)cc2)C(=O)c2ccccc21 [Compound 6d, 4-((3-Chloro-1,4-dioxo-1,4-dihydronaphthalen-2-yl)(4-nitrobenzyl)amino)-N-(pyridin-2-yl)benzenesulfonamide]	
> 100	O=C1C(Cl)=C(N(Cc2ccc3ccccc3c2)c2ccc(S(=O)(=O)Nc3ccccn3)cc2)C(=O)c2ccccc21 [Compound 6e, 4-((3-Chloro-1,4-dioxo-1,4-dihydronaphthalen-2-yl)(naphthalen-2-ylmethyl)amino)-N-(pyridin-2-yl)benzenesulfonamide]	
> 100	Cc1ccc(CN(C2=C(Cl)C(=O)c3ccccc3C2=O)c2ccc(S(=O)(=O)Nc3ccccn3)cc2)cc1 [Compound 6f, 4-((3-Chloro-1,4-dioxo-1,4-dihydronaphthalen-2-yl)(4-methylbenzyl)amino)-N-(pyridin-2-yl)benzenesulfonamide]	
> 100	O=C1C(Cl)=C(N(Cc2ccc(C(F)(F)F)cc2)c2ccc(S(=O)(=O)Nc3ccccn3)cc2)C(=O)c2ccccc21 [Compound 6g, 4-((3-Chloro-1,4-dioxo-1,4-dihydronaphthalen-2-yl)(4-(trifluoromethyl)benzyl)amino)-N-(pyridin-2-yl)benzenesulfonamide]	
